Key:
[1] = Evolution of turbidity of swimming pool water samples (HACH turbidity meter); assay type: physicochemical; conditions: for Turbidity: Aquacid or metasilicate 40.0 mg/L
Excerpt: The aim of this test was to compare the effect of two compositions comprising sodium chloride and isocyanuric acid in disinfecting swimming pool water, one further comprising HEDP, and the other metasilicate in order to obtain a composition according to the invention.
In all of the examples below, the substances used were as follows: • salt; • isocyanuric acid; • Aquacid© (powder with 72% HEDP); • disodium metasilicate pentahydrate; • tap water; • commercial bleach (concentration of bleach: 2.15% of active chlorine); • 1N hydrochloric acid; • 35% sulfuric acid; • sodium hydroxide; and • acetone.
The following proportions were prepared to prepare the samples:
The measurement of the turbidity, in NTU (Nephelometric Turbidity Unit), was carried out with the aid of a HACH turbidity meter at the time intervals indicated in Table 3. The reaction conditions were selected in order to accelerate the appearance of any cloudiness.

[2] = Anti-limescale effect: calcium deposited as limescale on beaker walls; conditions: for anti-limescale activity: conclusion in words; for % non limescale calcium / Calcium (part of the calcium responsible for the production of limescale): sample 11 Aquacid 24.0 mg/L, sample 14 metasilicate 20.0 mg/L
Method: The aim of this test was to analyze the reaction of two additives (HEDP, metasilicate) in the presence of calcium.
The apparatus used was as follows: • new beakers with a volume of 400 milliliters (mL), a pH meter, an oven at 70° C., plastic film as well as normal laboratory apparatus (including class A glassware).
The operating protocol can be summarized as follows: • For each test formulation, 300 mL of equivalent swimming pool solution was prepared in the beakers provided. Each series of analyses was spread over two types of water: one with a HT=30° F. and one with a HT=15° F., in order to produce a spectrum of results covering a broad range of water types. The isocyanuric acid was added in the liquid form from a 1 grams per liter (g/L) solution. The additives (HEDP, metasilicate) for the formulations were added in the liquid form from 1 g/L solutions. The solutions were systematically buffered, either with sulfuric acid or with sodium hydroxide, in order to provide an initial pH in the range 6.8 to 7.4 (maximum efficiency range for chlorine). The solutions were left covered with film and were analyzed 3 days later so that the substances had reacted. At the time the analysis was carried out, the beakers were placed in an oven at 70° C. in order to evaporate the liquid phase. They were then rinsed with 100 ml of osmosis purified water in order to eliminate the soluble deposits and to leave only limescale deposits on their walls. The beakers were then refilled with osmosis purified water and 1 mL of 1N hydrochloric acid in order to dissolve the deposits: the measurements were carried out on these solutions.
The parameters below were monitored during the study: • The following were measured for the starting tap water: pH, HT (hydrptimetric titer), calcium, AT (alkalimetric titer), and CAT (complete alkalimetric titer).
The pH was monitored throughout the experiment. The calcium was measured at the end of the experiment.

[3] = Anti-corrosion effect: steel plate immersed in 4 g/L saline solutions; conditions: for anti-corrosion activity: conclusion in words; for Fe loss/plate: results at 2 months, 4 g/L saline, sample 11 Aquacid 24.0 mg/L, sample 14 metasilicate 20.0 mg/L
Method: The principle of the method consists of completely immersing, in 4 g/L saline solutions with the compounds of the formulations, one steel plate per beaker, disposed vertically in order to have as little contact as possible with the glass. The formulations were those presented in section 4 in Example 3.
The efficacy of the formulations was evaluated as a function of the loss on ignition of the plate over a period of time, namely 2 months.
The following apparatus was used: • 400 mL beakers, pH-meter, steel plate with a surface area of 5.3 cm^2, plastic film as well as normal laboratory apparatus (including class A glassware). The operating protocol can be summarized as follows:
• stripping the plates with 1N hydrochloric acid using ultrasound in order to have plates of identical quality; • degreasing the plate with acetone in order to obtain identical active surfaces; • weighing the plates with milligram precision.
Swimming pool concentration solutions were prepared in advance in 2 liters (L) graduated flasks in order to provide mutually homogeneous media. The beakers were filled with 300 mL of the above-mentioned solutions. The beakers were covered with food quality film in order to prevent the medium from being polluted and in order to prevent too much evaporation.
The parameters measured were as follows: • on the tap water: pH, HT, AT, CAT, calcium.
In order to accelerate the phenomenon of corrosion, bubbling was carried out using an aquarium pump and outlet jets mounted on a rail. The bubbling time was 10 minutes. The solutions were aerated on odd days of the week. Since bubbling raises the pH, it was brought back to swimming pool in-service values, between 6.8 and 7.4. In order to maintain the salinity at 4 g/L and to overcome natural evaporation, tap water was added in order to keep the volume of water constant at 300 mL.
The following parameters were measured: • pH; • observations of the solutions and immersed plates once a day, taking photographs. These observations were made without handling either the beakers or the solutions.
The scraping spatula was treated with ultrasound then the plates were scraped using the spatula to recover the deposit. In order to terminate stripping of the plate and thus to collect all of the deposit, the plate and the spatula were treated with ultrasound in a water bath. The deposits were then filtered through 10 micrometer (pm) pores and 1.2 μm pores and then dried.
The following parameters were measured: • the plates were weighed to milligram precision; • an iron analysis was carried out on the plates; • a dissolved iron analysis was carried out on the solutions.
The analyses were carried out after 2 months.

[4] = Chlorine stabilizing effect under UV radiation (residual chlorine assay); assay type: physicochemical; conditions: for Residual chlorine: starting 3 mg/L Cl2, sample 11 Aquacid 24.0 mg/L, sample 14 metasilicate 20.0 mg/L
Method: In the presence of UV radiation, chlorine is destroyed photochemically. Isocyanuric acid can be used to reduce the destruction of chlorine under the effect of UV.
The following apparatus was used: 5 liter volume bucket, pH meter and normal laboratory apparatus (including class A glassware).
The operating procedure can be summarized as follows: • For each test formulation, two liters of solution was prepared in the buckets provided. The isocyanuric acid was added in the liquid form from a 1 g/L solution. The additives (metasilicates, HEDP) for the formulations were added in the liquid form from 1 g/L solutions. The dose of chlorine necessary for this study was provided by bleach in quantities that meant that solutions containing 3 mg/L of Cl2 were obtained. The solutions were systematically buffered, either with sulfuric acid or with sodium hydroxide, in order to provide a starting pH in the range 6.8 to 7.4 (zone of maximum efficiency for chlorine).
The following parameters were measured during the study: • for the starting water: pH, residual chlorine, HT, calcium, AT, CAT were measured; • throughout the experiment: pH, residual chlorine were monitored.
The chlorine measurements were carried out using quantitative chlorine assay. The measurements were carried out at times T+32 h10 and T+50 h10; the formulation of the compositions at time T are given in Table 4.

[5] = time T, salt 4.0 g/L, iso acid 28.0 mg/L, chlorine 3.0 mg/L
[6] = first starting water, HT 27 °f, calcium 109 mg/L
[7] = second starting water, HT 14.6 °f
[8] = second starting water, HT 14.6 °f, calcium 44.3 mg/L

Row | Turbidity ([1]; T + 94 h) | Turbidity ([1]; T + 118 h) | Turbidity ([1]; T + 142 h) | Turbidity ([1]; T + 168 h) | Turbidity ([1]; T + 192 h) | Turbidity ([1]; T + 216 h) | Turbidity [1, 5] | Loss of chlorine ([4]; T + 32 h 10) | Residual chlorine ([4]; T + 32 h 10) | Loss of chlorine ([4]; T + 50 h 10) | Residual chlorine ([4]; T + 50 h 10) | SMILES | anti-limescale activity [2] | calcium in the water before treatment transformed into limescale ([2]; first starting water, HT 27 °f) | % non limescale calcium [2, 6] | Calcium (part of the calcium responsible for the production of limescale) [2, 6] | calcium of the water before treatment transformed into limescale [2, 7] | % non limescale calcium [2, 8] | Calcium (part of the calcium responsible for the production of limescale) [2, 8] | anti-corrosion activity [3] | Fe loss/plate [3] | further results
1 | 20.5 NTU | 22.5 NTU | 30.1 NTU | 34.2 NTU | 44.4 NTU | 56.8 NTU | 0.243 NTU | 100.00% | 0 mg/L | 100.00% | 0 mg/L | CC(O)(P(=O)(O)O)P(=O)(O)O [HEDP, 1-hydroxyethane-1,1-diphosphonic acid, reference compound] | have an anti-limescale activity | 7.9% | 92.1% | 8.6 mg/L | 8.6% | 91.4% | 3.8 mg/L | have an anti-corrosion activity | 2.80% | –
2 | 0.538 NTU | 0.547 NTU | 0.526 NTU | 0.579 NTU | 1.4 NTU | 1.45 NTU | 0.274 NTU | 36.36% | 1.89 mg/L | 62.96% | 1.1 mg/L | O.O.O.O.O.O=[Si]([O-])[O-].[Na+].[Na+] [Metasilicate, disodium metasilicate pentahydrate] | better anti-limescale activity than that of the HEDP | 3.5% | 96.5% | 3.8 mg/L | 5.9% | 94.1% | 2.6 mg/L | anti-corrosion activity that is even better than that of HEDP | 1.63% | cloudiness of the water detectable to the naked eye ([1]; same conditions as Table 3): does not induce any cloudiness; preservation of the residual chlorine concentration ([4]; conclusion in words): preserves the residual chlorine concentration better than HEDP

Reference: patent US20130270195A1, “MULTIFUNCTIONAL COMPOSITION FOR THE DISINFECTION TREATMENT OF WATER, AND USE OF THIS COMPOSITION” (Compagnie Des Salins Du Midi Et Des Salines De L'Est, priority 2010, published 2013)
